In patent US5304470A, “Process for the enzymatic preparation of protected and unprotected di- and oligopeptides in aqueous solutions” (Forschungszentrum Juelich GmbH, priority 1991, dated 1994):

Text: (§1) The ethyl ester of tyrosine was reacted.
as §1, §1

solubility in water [mM]	SMILES
> 1000	CCOC(=O)C(CCCNC(=N)N)NC(=O)C=CC(=O)O (stereo not drawn) [Mal-Arg-OEt]
> 700	CCOC(=O)[C@H](Cc1c[nH]c2ccccc12)NC(=O)/C=C\C(=O)O [Mal-Trp-OEt]
> 600	CCOC(=O)[C@H](Cc1ccc(O)cc1)NC(=O)/C=C\C(=O)O [Mal-Tyr-OEt]
> 700	CCOC(=O)C(Cc1ccccc1)NC(=O)C=CC(=O)O (stereo not drawn) [Mal-Phe-OEt]
